Assay results from US10111433B2 (priority 2014, dated 2018).
Where two headings read alike, the source gives them in different places.

Columns and labels:
[1] = tested on: Phytophthora capsici; assay: Activity against Phytophthora capsici, growth inhibition in nutrient broth (microtiter plate); assay type: cell-based
Protocol: Conidia of the fungus from cryogenic storage are directly mixed into nutrient broth (PDB potato dextrose broth). After placing a (DMSO) solution of test compound into a microtiter plate (96-well format), the nutrient broth containing the fungal spores is added. […] Table B4 to B21 gives the mean percent control relative to untreated.

[2] = tested on: Phytophthora infestans; assay type: in vivo
[3] = tested on: Phytophthora infestans; assay type: in vivo; conditions: Table B3; Chlorothalonil 1000 gai/ha; leaf area, four days after final application
[4] = tested on: Plasmopara viticola; assay: Field activity against Plasmopara viticola on grapevine; assay type: in vivo; conditions: Table B2; Mandipropamid 93.75 gai/ha; bunches, ten days after sixth application
Source text: Merlot grapevines were cultivated in rows with 1 m between plants within the row, and 2 m spaces between rows. Treatment plots were defined with an 8 m^2 vertical area. The trial consisted of three replicates of the treatment list, with the positions of each treatment plot randomised within the replicate.
Test compounds were formulated and applied to the relevant treatment plots, using a backpack sprayer with a flat fan nozzle. The first application was made when the majority of plants were at growth stage BBCH 15 and following applications at 10-14 day intervals through to growth stage BBCH 79.
The first symptoms of the target pathogen Plasmopara viticola were observed between the second and third applications. Plants outside the trial area were inoculated to increase the disease pressure, but infection processes within the trial plots were natural. […]
Ten days after the sixth application, at growth stage BBCH 79, the fruit was assessed for infection by Plasmopara viticola. 50 bunches per plot were assessed, the scores given in table B2 are percent disease control relative to untreated, based on the mean percentage of bunches showing symptoms of infection across all three replicates of a treatment.

[5] = Table B20, Iprovalicarb 0.6250 ppm, no A-1.2 rate printed in the row

COCC(=O)N(c1c(C)cccc1C)[C@H](C)C(=O)OC [Mefenoxam]
% disease control ([1]; Table B8, Mefenoxam 0.0031 ppm): 0% | % disease control ([1]; Table B8, Mefenoxam 0.0063 ppm): 13% | % disease control ([1]; Table B8, Mefenoxam 0.0125 ppm): 13% | % disease control ([1]; Table B8, Mefenoxam 0.0250 ppm): 28% | % disease control ([1]; Table B8, Mefenoxam 0.0500 ppm): 42%

O=C1c2ccccc2C(=O)N1SC(Cl)(Cl)Cl [Folpet]
% disease control ([2]; Table B1.2, Folpet 20 ppm): 0% | % disease control ([2]; Table B1.2, Folpet 60 ppm): 33% | inhibition of growth at 0.0313 ppm ([1]; Phytophthora capsici, Table B12, Folpet 0.0313 ppm, read-out: % disease control): 17% | inhibition of growth at 0.0625 ppm ([1]; Phytophthora capsici, Table B12, Folpet 0.0625 ppm, read-out: % disease control): 11% | inhibition of growth at 0.125 ppm ([1]; Phytophthora capsici, Table B12, Folpet 0.1250 ppm, read-out: % disease control): 19% | inhibition of growth at 0.25 ppm ([1]; Phytophthora capsici, Table B12, Folpet 0.2500 ppm, read-out: % disease control): 19%

Mancozeb
% disease control ([1]; Table B4, Mancozeb 0.3125 ppm): 3% | % disease control ([1]; Table B4, Mancozeb 0.6250 ppm): 1% | % disease control ([1]; Table B4, Mancozeb 1.2500 ppm): 0% | % disease control ([1]; Table B4, Mancozeb 2.5000 ppm): 0% | % disease control ([1]; Table B4, Mancozeb 5.0000 ppm): 1% | % disease control ([1]; Table B4, Mancozeb 10.0000 ppm): 1% | % disease control ([1]; Table B4, Mancozeb 20.0000 ppm): 0%

CO/C=C(/C(=O)OC)c1ccccc1Oc1cc(Oc2ccccc2C#N)ncn1 [Azoxystrobin]
% disease control ([1]; Table B7, Azoxystrobin 0.0313 ppm): 23% | % disease control ([1]; Table B7, Azoxystrobin 0.0625 ppm): 23% | % disease control ([1]; Table B7, Azoxystrobin 0.1250 ppm): 62%

N#Cc1c(Cl)c(Cl)c(Cl)c(C#N)c1Cl [Chlorothalonil]
% disease control relative to untreated [3]: 4.3% | % disease control ([2]; Table B1.3, Chlorothalonil 60 ppm): 6% | inhibition of growth at 0.0781 ppm ([1]; Phytophthora capsici, Table B5, Chlorothalonil 0.0781 ppm, read-out: % disease control): 24% | inhibition of growth at 0.1563 ppm ([1]; Phytophthora capsici, Table B5, Chlorothalonil 0.1563 ppm, read-out: % disease control): 24% | inhibition of growth at 0.3125 ppm ([1]; Phytophthora capsici, Table B5, Chlorothalonil 0.3125 ppm, read-out: % disease control): 23% | inhibition of growth at 0.625 ppm ([1]; Phytophthora capsici, Table B5, Chlorothalonil 0.6250 ppm, read-out: % disease control): 64%

CCCCCCCCc1c(CC)nc2ncnn2c1N [Ametoctradin]
% disease control ([1]; Table B17, Ametoctradin 0.0063 ppm): 8% | % disease control ([1]; Table B17, Ametoctradin 0.0125 ppm): 8% | % disease control ([1]; Table B17, Ametoctradin 0.0250 ppm): 13% | % disease control ([1]; Table B17, Ametoctradin 0.0500 ppm): 30%

COc1ccc(C(=CC(=O)N2CCOCC2)c2ccc(Cl)cc2)cc1OC [Dimetomorph]
inhibition of growth at 0.0031 ppm ([1]; Phytophthora capsici, Table B10, Dimetomorph 0.0031 ppm, read-out: % disease control): 0% | inhibition of growth at 0.0063 ppm ([1]; Phytophthora capsici, Table B10, Dimetomorph 0.0063 ppm, read-out: % disease control): 14% | inhibition of growth at 0.0125 ppm ([1]; Phytophthora capsici, Table B10, Dimetomorph 0.0125 ppm, read-out: % disease control): 0% | inhibition of growth at 0.1 ppm ([1]; Phytophthora capsici, Table B10, Dimetomorph 0.1000 ppm, read-out: % disease control): 28%

C#CCOc1ccc(CCNC(=O)C(OCC#C)c2ccc(Cl)cc2)cc1OC (stereo not shown) [Mandipropamid]
% disease control relative to untreated [4]: 17.3% | % disease control ([2]; Table B1.1, Mandipropamid 0.06 ppm): 0% | % disease control ([2]; Table B1.1, Mandipropamid 0.2 ppm): 0% | % disease control ([2]; Table B1.1, Mandipropamid 0.6 ppm): 3% | % disease control ([1]; Table B9, Mandipropamid 0.0003 ppm): 16% | % disease control ([1]; Table B9, Mandipropamid 0.0006 ppm): 0% | % disease control ([1]; Table B9, Mandipropamid 0.0012 ppm): 0% | % disease control ([1]; Table B9, Mandipropamid 0.0025 ppm): 17% | % disease control ([1]; Table B9, Mandipropamid 0.0050 ppm): 13% | % disease control ([1]; Table B9, Mandipropamid 0.0100 ppm): 15%

CCNC(=O)NC(=O)/C(C#N)=N/OC [Cymoxanil]
inhibition of growth at 0.0625 ppm ([1]; Phytophthora capsici, Table B13, Cymoxanil 0.0625 ppm, read-out: % disease control): 0% | inhibition of growth at 0.125 ppm ([1]; Phytophthora capsici, Table B13, Cymoxanil 0.1250 ppm, read-out: % disease control): 10% | inhibition of growth at 0.25 ppm ([1]; Phytophthora capsici, Table B13, Cymoxanil 0.2500 ppm, read-out: % disease control): 0% | inhibition of growth at 0.5 ppm ([1]; Phytophthora capsici, Table B13, Cymoxanil 0.5000 ppm, read-out: % disease control): 11% | inhibition of growth at 1 ppm ([1]; Phytophthora capsici, Table B13, Cymoxanil 1.0000 ppm, read-out: % disease control): 8% | inhibition of growth at 2 ppm ([1]; Phytophthora capsici, Table B13, Cymoxanil 2.0000 ppm, read-out: % disease control): 36%

C[C@@]1(c2ccc(Oc3ccccc3)cc2)OC(=O)N(Nc2ccccc2)C1=O (racemic) [Famoxadone]
inhibition of growth at 0.1563 ppm ([1]; Phytophthora capsici, Table B19, Famoxadone 0.1563 ppm, read-out: % disease control): 16% | inhibition of growth at 0.3125 ppm ([1]; Phytophthora capsici, Table B19, Famoxadone 0.3125 ppm, read-out: % disease control): 16% | inhibition of growth at 0.625 ppm ([1]; Phytophthora capsici, Table B19, Famoxadone 0.6250 ppm, read-out: % disease control): 16% | inhibition of growth at 1.25 ppm ([1]; Phytophthora capsici, Table B19, Famoxadone 1.2500 ppm, read-out: % disease control): 16% | inhibition of growth at 2.5 ppm ([1]; Phytophthora capsici, Table B19, Famoxadone 2.5000 ppm, read-out: % disease control): 16% | inhibition of growth at 5 ppm ([1]; Phytophthora capsici, Table B19, Famoxadone 5.0000 ppm, read-out: % disease control): 25%

Cc1ccc(C(C)NC(=O)[C@@H](NC(=O)OC(C)C)C(C)C)cc1 (stereo partly shown) [Iprovalicarb]
% disease control [1, 5]: 91% | Expected action (Colby) [1, 5]: 66% | % disease control ([1]; Table B20, Iprovalicarb 1.2500 ppm): 18% | % disease control ([1]; Table B20, Iprovalicarb 2.5000 ppm): 0%

CCO[PH](=O)[O-].CCO[PH](=O)[O-].CCO[PH](=O)[O-].[Al+3] [Fosethyl-Al]
% disease control ([1]; Table B21, Fosethyl-Al 0.3125 ppm): 8% | % disease control ([1]; Table B21, Fosethyl-Al 0.6250 ppm): 14% | % disease control ([1]; Table B21, Fosethyl-Al 1.2500 ppm): 14%

CSC1=N[C@@](C)(c2ccccc2)C(=O)N1Nc1ccccc1 [Fenamidone]
inhibition of growth at 0.0031 ppm ([1]; Phytophthora capsici, Table B18, Fenamidone 0.0031 ppm, read-out: % disease control): 12% | inhibition of growth at 0.0063 ppm ([1]; Phytophthora capsici, Table B18, Fenamidone 0.0063 ppm, read-out: % disease control): 4% | inhibition of growth at 0.0125 ppm ([1]; Phytophthora capsici, Table B18, Fenamidone 0.0125 ppm, read-out: % disease control): 41% | inhibition of growth at 0.025 ppm ([1]; Phytophthora capsici, Table B18, Fenamidone 0.0250 ppm, read-out: % disease control): 54%

O=[N+]([O-])c1cc(C(F)(F)F)c(Cl)c([N+](=O)[O-])c1Nc1ncc(C(F)(F)F)cc1Cl [Fluazinam]
inhibition of growth at 0.0625 ppm ([1]; Phytophthora capsici, Table B11, Fluazinam 0.0625 ppm, read-out: % disease control): 4% | inhibition of growth at 0.125 ppm ([1]; Phytophthora capsici, Table B11, Fluazinam 0.1250 ppm, read-out: % disease control): 10% | inhibition of growth at 0.25 ppm ([1]; Phytophthora capsici, Table B11, Fluazinam 0.2500 ppm, read-out: % disease control): 0% | inhibition of growth at 0.5 ppm ([1]; Phytophthora capsici, Table B11, Fluazinam 0.5000 ppm, read-out: % disease control): 14%

Cc1c(Br)c2ccc(F)cc2n1S(=O)(=O)c1ncn(S(=O)(=O)N(C)C)n1 [Amisulbrom]
% disease control ([1]; Table B16, Amisulbrom 0.0063 ppm): 5% | % disease control ([1]; Table B16, Amisulbrom 0.0125 ppm): 6% | % disease control ([1]; Table B16, Amisulbrom 0.0500 ppm): 24% | % disease control ([1]; Table B16, Amisulbrom 0.1000 ppm): 35%

N#Cc1sc2c(=O)c3ccccc3c(=O)c=2sc1C#N [Dithianon]
inhibition of growth at 0.125 ppm ([1]; Phytophthora capsici, Table B6, Dithianon 0.1250 ppm, read-out: % disease control): 0% | inhibition of growth at 0.25 ppm ([1]; Phytophthora capsici, Table B6, Dithianon 0.2500 ppm, read-out: % disease control): 7% | inhibition of growth at 0.5 ppm ([1]; Phytophthora capsici, Table B6, Dithianon 0.5000 ppm, read-out: % disease control): 8% | inhibition of growth at 1 ppm ([1]; Phytophthora capsici, Table B6, Dithianon 1.0000 ppm, read-out: % disease control): 25%

O=C(NCc1ncc(C(F)(F)F)cc1Cl)c1c(Cl)cccc1Cl [Fluopicolid]
% disease control ([1]; Table B15, Fluopicolid 0.0625 ppm): 6% | % disease control ([1]; Table B15, Fluopicolid 0.1250 ppm): 59% | % disease control ([1]; Table B15, Fluopicolid 0.2500 ppm): 69% | % disease control ([1]; Table B15, Fluopicolid 0.5000 ppm): 79%

CCC(C)(NC(=O)c1cc(Cl)c(C)c(Cl)c1)C(=O)CCl (stereo not shown) [Zoxamid]
inhibition of growth at 0.0063 ppm ([1]; Phytophthora capsici, Table B14, Zoxamid 0.0063 ppm, read-out: % disease control): 19% | inhibition of growth at 0.0125 ppm ([1]; Phytophthora capsici, Table B14, Zoxamid 0.0125 ppm, read-out: % disease control): 40% | inhibition of growth at 0.025 ppm ([1]; Phytophthora capsici, Table B14, Zoxamid 0.0250 ppm, read-out: % disease control): 48% | inhibition of growth at 0.05 ppm ([1]; Phytophthora capsici, Table B14, Zoxamid 0.0500 ppm, read-out: % disease control): 65%
